ChEMBL document CHEMBL2321687, “Identification of a novel arylpiperazine scaffold for fatty acid amide hydrolase inhibition with improved drug disposition properties” (Bioorg Med Chem Lett, 2013)

Assays:
[1] = biological target: 5-hydroxytryptamine receptor 5A (Homo sapiens) (UniProt P47898); test: Displacement of [3H]LSD from human recombinant 5-HT5A receptor expressed in CHO cells at 1 uM; type: cell-based
[2] = biological target: Beta-1 adrenergic receptor (Homo sapiens) (UniProt P08588); test: Displacement of [3H](-)CGP12177 from human recombinant beta1 receptor expressed in HEK293 cells at 1 uM; type: cell-based
CHO = test: Displacement of [3H]DADLE from human recombinant delta2 opioid receptor expressed in CHO cells at 1 uM; type: cell-based
[3] = biological target: Sodium-dependent noradrenaline transporter (Homo sapiens) (UniProt P23975); test: Displacement of [3H]nisoxetine from human recombinant NE transporter expressed in CHO cells at 1 uM; type: cell-based
[4] = biological target: Thromboxane A2 receptor (Homo sapiens) (UniProt P21731); test: Displacement of [3H]SQ29548 from human recombinant TP receptor expressed in HEK293 cells at 1 uM; type: cell-based
[5] = biological target: Galanin receptor type 2 (Homo sapiens) (UniProt O43603); test: Displacement of [125I]Galanin from human recombinant GAL2 receptor expressed in CHO cells at 1 uM; type: cell-based
[6] = biological target: Kappa-type opioid receptor (Rattus norvegicus) (UniProt P34975); test: Displacement of [3H]U69593 from rat recombinant kappa opioid receptor expressed in CHO cells at 1 uM; type: cell-based
[7] = biological target: Neuromedin-K receptor (Homo sapiens) (UniProt P29371); test: Displacement of [3H]SR142801 from human recombinant NK3 receptor expressed in CHO cells at 1 uM; type: cell-based
Rattus norvegicus [8] = organism: Rattus norvegicus; test: Displacement of [3H]batrachotoxinin from rat Na+ channel site 2 in cerebral cortex; type: tissue-based; details: concentration not given here
[9] = biological target: C-X-C chemokine receptor type 2 (Homo sapiens) (UniProt P25025); test: Displacement of [125I]IL-8 from human recombinant CXCR2 receptor expressed in HEK293 cells at 1 uM; type: cell-based
[10] = biological target: D(2) dopamine receptor (Homo sapiens) (UniProt P14416); test: Displacement of [3H]spiperone from human recombinant D2S receptor expressed in HEK293 cells at 1 uM; type: cell-based
Rattus norvegicus [11] = organism: Rattus norvegicus; test: Displacement of [125I]a-dendrotoxin from rat K+ V channel in cerebral cortex; type: tissue-based; details: concentration not given here
[12] = biological target: Mu-type opioid receptor (Homo sapiens) (UniProt P35372); test: Displacement of [3H]DAMGO from human recombinant mu opioid receptor expressed in HEK293 cells at 1 uM; type: cell-based
[13] = biological target: Vasopressin V1a receptor (Homo sapiens) (UniProt P37288); test: Displacement of [3H]AVP from human recombinant V1a receptor expressed in CHO cells at 1 uM; type: cell-based
[14] = biological target: 5-hydroxytryptamine receptor 6 (Homo sapiens) (UniProt P50406); test: Displacement of [3H]LSD from human recombinant 5-HT6 receptor expressed in CHO cells at 1 uM; type: cell-based
[15] = biological target: D(1A) dopamine receptor (Homo sapiens) (UniProt P21728); test: Displacement of [3H]SCH23390 from human recombinant D1 receptor expressed in CHO cells at 1 uM; type: cell-based
[16] = biological target: Muscarinic acetylcholine receptor M3 (Homo sapiens) (UniProt P20309); test: Displacement of [3H]4-DAMP from human recombinant muscarinic M3 receptor expressed in CHO cells at 1 uM; type: cell-based
[17] = biological target: Adrenergic receptor alpha-1 (Rattus norvegicus) (UniProt P15823+P23944+P43140); test: Displacement of [3H]prazosin from rat alpha1 receptor in cerebral cortex; type: tissue-based; details: concentration not given here
Rattus norvegicus [18] = organism: Rattus norvegicus; test: Displacement of [35S]TBPS from rat GABA gated chloride channel in cerebral cortex; type: tissue-based; details: concentration not given here
[19] = biological target: Type-1 angiotensin II receptor (Homo sapiens) (UniProt P30556); test: Displacement of [125I][Sar1,Ile8]-AT II from human recombinant AT1 receptor expressed in HEK293 cells at 1 uM; type: cell-based
[20] = biological target: Nociceptin receptor (Homo sapiens) (UniProt P41146); test: Displacement of [3H]Nociceptin from human recombinant ORL1 receptor expressed in HEK293 cells at 1 uM; type: cell-based
[21] = biological target: Melatonin receptor type 1A (Homo sapiens) (UniProt P48039); test: Displacement of [125I]2-iodomelatonin from human recombinant MT1 receptor expressed in CHO cells at 1 uM; type: cell-based
[22] = biological target: 5-hydroxytryptamine receptor 1B (Rattus norvegicus) (UniProt P28564); test: Displacement of [125I]CYP from rat 5-HT1B receptor in cerebral cortex; type: tissue-based; details: concentration not given here
[23] = biological target: Substance-K receptor (Homo sapiens) (UniProt P21452); test: Displacement of [125I]NKA from human recombinant NK2 receptor expressed in CHO cells at 1 uM; type: cell-based
[24] = biological target: Adenosine receptor A1 (Homo sapiens) (UniProt P30542); test: Displacement of [3H]DPCPX from human recombinant adenosine A1 receptor expressed in CHO cells at 1 uM; type: cell-based
[25] = biological target: Cannabinoid receptor 1 (Homo sapiens) (UniProt P21554); test: Displacement of [3H]CP55940 from human recombinant CB1 receptor expressed in CHO cells at 1 uM; type: cell-based
[26] = biological target: 5-hydroxytryptamine receptor 7 (Homo sapiens) (UniProt P34969); test: Displacement of [3H]LSD from human recombinant 5-HT7 receptor expressed in CHO cells at 1 uM; type: cell-based
[27] = biological target: Muscarinic acetylcholine receptor M2 (Homo sapiens) (UniProt P08172); test: Displacement of [3H]AF-DX384 from human recombinant muscarinic M2 receptor expressed in CHO cells at 1 uM; type: cell-based
[28] = biological target: Adenosine receptor A2a (Homo sapiens) (UniProt P29274); test: Displacement of [3H]CGS21680 from human recombinant adenosine A2A receptor expressed in HEK293 cells at 1 uM; type: cell-based
[29] = biological target: Cholecystokinin receptor type A (Homo sapiens) (UniProt P32238); test: Displacement of [125I]CCK-8 from human recombinant CCKA receptor expressed in CHO cells at 1 uM; type: cell-based
[30] = biological target: 5-hydroxytryptamine receptor 1A (Homo sapiens) (UniProt P08908); test: Displacement of [3H]8-OH-DPAT from human recombinant 5-HT1A receptor expressed in HEK293 cells at 1 uM; type: cell-based
[31] = biological target: 5-hydroxytryptamine receptor 2B (Homo sapiens) (UniProt P41595); test: Displacement of [125I](+/-)DOI from human recombinant 5-HT2B receptor expressed in CHO cells at 1 uM; type: cell-based
[32] = biological target: Endothelin-1 receptor (Homo sapiens) (UniProt P25101); test: Displacement of [125I]endothelin-1 from human recombinant ETA receptor expressed in CHO cells at 1 uM; type: cell-based
[33] = biological target: 5-hydroxytryptamine receptor 2A (Homo sapiens) (UniProt P28223); test: Displacement of [3H]Ketanserin from human recombinant 5-HT2A receptor expressed in HEK293 cells at 1 uM; type: cell-based
[34] = biological target: Vasoactive intestinal polypeptide receptor 1 (Homo sapiens) (UniProt P32241); test: Displacement of [125I]VIP from human recombinant VPAC1 receptor expressed in CHO cells at 1 uM; type: cell-based
Rattus norvegicus [35] = organism: Rattus norvegicus; test: Displacement of [3H](-)D888 from rat L-type Ca2+ channel verapamil site in cerebral cortex; type: tissue-based; details: concentration not given here
[36] = biological target: 5-hydroxytryptamine receptor 3A (Homo sapiens) (UniProt P46098); test: Displacement of [3H]BRL43694 from human recombinant 5-HT3 receptor expressed in CHO cells at 1 uM; type: cell-based

Cannabinoid receptor 1 (Homo sapiens), sequence (P21554 whole entry): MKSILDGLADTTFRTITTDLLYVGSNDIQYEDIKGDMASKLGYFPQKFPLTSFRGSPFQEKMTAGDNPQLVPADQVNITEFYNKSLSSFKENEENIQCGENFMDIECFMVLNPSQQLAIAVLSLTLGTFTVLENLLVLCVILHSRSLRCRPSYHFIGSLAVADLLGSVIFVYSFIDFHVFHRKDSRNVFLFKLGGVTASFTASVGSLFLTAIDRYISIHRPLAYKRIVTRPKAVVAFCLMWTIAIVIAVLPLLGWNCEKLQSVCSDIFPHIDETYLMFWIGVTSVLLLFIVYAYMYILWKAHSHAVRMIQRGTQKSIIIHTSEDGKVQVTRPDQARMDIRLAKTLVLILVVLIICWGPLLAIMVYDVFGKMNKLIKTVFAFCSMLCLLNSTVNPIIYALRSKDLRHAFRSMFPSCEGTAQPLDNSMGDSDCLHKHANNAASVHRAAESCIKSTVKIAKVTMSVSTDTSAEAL
C-X-C chemokine receptor type 2 (Homo sapiens), sequence (P25025 whole entry): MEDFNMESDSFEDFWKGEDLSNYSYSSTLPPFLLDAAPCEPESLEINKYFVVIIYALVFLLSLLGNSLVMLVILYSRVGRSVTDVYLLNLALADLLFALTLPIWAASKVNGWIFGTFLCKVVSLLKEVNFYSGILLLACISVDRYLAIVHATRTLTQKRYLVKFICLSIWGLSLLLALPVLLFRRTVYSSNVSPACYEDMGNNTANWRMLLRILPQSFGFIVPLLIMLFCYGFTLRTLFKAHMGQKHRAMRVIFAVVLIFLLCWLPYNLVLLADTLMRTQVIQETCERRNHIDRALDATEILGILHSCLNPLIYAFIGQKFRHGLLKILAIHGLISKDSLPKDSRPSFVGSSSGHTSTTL
Sodium-dependent noradrenaline transporter (Homo sapiens), sequence (P23975 whole entry): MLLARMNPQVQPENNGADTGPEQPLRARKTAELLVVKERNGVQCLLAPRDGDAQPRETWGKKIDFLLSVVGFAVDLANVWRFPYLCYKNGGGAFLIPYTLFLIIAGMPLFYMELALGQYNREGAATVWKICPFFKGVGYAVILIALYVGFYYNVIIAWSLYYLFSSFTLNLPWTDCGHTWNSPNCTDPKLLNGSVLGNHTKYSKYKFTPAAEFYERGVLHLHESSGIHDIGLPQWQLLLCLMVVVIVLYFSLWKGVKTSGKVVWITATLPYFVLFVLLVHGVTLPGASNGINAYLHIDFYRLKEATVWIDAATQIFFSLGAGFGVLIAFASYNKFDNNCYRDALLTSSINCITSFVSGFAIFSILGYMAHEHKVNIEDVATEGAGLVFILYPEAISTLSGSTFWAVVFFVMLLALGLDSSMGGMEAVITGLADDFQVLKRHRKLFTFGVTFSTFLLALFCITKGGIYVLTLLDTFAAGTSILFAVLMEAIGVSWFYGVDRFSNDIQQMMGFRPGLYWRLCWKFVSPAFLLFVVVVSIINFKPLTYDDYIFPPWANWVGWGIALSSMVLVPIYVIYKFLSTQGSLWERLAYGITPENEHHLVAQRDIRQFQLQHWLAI
Melatonin receptor type 1A (Homo sapiens), sequence (P48039 whole entry): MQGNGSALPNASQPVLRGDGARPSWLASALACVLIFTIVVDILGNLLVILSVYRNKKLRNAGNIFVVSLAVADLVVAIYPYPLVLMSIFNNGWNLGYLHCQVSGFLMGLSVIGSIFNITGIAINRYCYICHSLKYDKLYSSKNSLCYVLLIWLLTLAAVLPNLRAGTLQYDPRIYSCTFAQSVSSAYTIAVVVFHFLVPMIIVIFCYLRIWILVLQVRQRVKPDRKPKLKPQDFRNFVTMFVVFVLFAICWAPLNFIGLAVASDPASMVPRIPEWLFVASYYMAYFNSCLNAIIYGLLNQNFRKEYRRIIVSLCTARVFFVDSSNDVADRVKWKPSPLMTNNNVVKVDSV
Vasoactive intestinal polypeptide receptor 1 (Homo sapiens), sequence (P32241 whole entry): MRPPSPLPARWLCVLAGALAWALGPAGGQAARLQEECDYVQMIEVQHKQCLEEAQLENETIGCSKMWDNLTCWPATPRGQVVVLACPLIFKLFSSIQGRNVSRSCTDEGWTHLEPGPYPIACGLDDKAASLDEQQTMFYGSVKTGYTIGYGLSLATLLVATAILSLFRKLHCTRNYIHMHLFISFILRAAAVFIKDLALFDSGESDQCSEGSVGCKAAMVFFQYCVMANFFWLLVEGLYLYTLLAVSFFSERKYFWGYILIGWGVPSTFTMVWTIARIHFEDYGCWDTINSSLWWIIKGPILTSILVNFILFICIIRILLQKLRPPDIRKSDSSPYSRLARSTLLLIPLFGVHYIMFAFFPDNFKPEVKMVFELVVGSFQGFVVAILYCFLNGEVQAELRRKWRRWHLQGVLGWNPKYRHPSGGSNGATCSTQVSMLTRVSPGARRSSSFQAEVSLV
Vasopressin V1a receptor (Homo sapiens), sequence (P37288 whole entry, looked up): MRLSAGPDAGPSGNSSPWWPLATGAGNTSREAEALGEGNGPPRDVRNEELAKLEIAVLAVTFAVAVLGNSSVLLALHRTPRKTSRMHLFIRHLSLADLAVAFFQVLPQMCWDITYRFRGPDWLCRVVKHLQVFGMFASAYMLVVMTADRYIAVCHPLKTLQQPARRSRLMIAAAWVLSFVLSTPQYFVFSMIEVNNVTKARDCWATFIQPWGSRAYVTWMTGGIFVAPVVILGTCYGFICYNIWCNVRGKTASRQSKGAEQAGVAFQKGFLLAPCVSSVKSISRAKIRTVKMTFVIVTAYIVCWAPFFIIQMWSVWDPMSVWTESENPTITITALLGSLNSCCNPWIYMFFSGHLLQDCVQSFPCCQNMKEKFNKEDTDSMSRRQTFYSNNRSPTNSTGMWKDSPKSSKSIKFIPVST
Kappa-type opioid receptor (Rattus norvegicus), sequence (P34975 whole entry): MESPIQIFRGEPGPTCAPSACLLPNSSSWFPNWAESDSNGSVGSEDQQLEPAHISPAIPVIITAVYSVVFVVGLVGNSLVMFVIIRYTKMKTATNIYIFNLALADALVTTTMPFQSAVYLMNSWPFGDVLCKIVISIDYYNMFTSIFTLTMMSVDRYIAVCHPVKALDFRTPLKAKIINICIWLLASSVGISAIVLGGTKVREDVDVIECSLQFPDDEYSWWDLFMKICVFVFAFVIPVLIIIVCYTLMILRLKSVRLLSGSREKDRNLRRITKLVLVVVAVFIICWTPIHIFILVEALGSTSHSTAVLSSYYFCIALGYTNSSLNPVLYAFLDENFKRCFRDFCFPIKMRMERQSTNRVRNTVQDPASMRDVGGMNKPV
Nociceptin receptor (Homo sapiens), sequence (P41146 whole entry): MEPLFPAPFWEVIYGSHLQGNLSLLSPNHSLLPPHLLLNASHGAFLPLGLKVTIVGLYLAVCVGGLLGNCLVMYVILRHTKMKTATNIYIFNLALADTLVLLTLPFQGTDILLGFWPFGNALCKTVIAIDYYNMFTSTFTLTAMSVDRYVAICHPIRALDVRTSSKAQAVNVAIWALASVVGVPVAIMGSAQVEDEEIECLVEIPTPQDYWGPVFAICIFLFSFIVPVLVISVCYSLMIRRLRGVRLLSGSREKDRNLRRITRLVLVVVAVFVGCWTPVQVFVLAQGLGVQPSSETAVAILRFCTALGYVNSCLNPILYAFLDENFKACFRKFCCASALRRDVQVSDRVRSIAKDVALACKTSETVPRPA
Cholecystokinin receptor type A (Homo sapiens), sequence (P32238 whole entry): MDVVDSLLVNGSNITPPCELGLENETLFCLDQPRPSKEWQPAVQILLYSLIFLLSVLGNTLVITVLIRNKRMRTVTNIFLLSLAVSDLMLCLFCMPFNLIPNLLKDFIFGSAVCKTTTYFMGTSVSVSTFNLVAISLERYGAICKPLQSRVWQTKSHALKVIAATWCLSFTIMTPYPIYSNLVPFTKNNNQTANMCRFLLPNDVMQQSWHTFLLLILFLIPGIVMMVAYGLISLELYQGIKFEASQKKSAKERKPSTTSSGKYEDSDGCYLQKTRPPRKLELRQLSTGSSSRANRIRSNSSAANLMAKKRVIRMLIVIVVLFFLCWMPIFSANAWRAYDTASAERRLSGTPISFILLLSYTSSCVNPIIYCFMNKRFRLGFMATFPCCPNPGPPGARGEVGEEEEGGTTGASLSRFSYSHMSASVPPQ
5-hydroxytryptamine receptor 2B (Homo sapiens), sequence (P41595 whole entry): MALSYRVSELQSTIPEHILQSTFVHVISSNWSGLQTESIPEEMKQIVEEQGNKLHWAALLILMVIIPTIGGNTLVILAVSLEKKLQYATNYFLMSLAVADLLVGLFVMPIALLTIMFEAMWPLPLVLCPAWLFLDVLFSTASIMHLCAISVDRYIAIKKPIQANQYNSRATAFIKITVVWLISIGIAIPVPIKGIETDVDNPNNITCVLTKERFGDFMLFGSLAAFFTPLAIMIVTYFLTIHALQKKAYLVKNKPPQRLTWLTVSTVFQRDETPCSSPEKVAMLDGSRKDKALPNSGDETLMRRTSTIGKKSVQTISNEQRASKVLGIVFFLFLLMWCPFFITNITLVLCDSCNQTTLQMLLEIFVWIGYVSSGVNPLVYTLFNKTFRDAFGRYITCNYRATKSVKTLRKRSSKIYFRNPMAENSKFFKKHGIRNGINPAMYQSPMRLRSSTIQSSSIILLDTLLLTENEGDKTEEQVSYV
Endothelin-1 receptor (Homo sapiens), sequence (P25101 whole entry): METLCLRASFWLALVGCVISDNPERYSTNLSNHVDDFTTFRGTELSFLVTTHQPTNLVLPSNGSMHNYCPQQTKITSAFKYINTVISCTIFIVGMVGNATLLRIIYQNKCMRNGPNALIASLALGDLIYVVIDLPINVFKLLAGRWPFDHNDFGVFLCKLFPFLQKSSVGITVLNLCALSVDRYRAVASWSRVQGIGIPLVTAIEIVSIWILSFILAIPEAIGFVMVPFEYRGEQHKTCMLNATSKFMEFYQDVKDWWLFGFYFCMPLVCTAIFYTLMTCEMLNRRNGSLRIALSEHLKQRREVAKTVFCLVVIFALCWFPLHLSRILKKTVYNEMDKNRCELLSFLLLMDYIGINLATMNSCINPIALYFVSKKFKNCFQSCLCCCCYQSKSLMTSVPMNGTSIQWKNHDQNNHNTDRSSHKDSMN

CCCCCCCOc1ccc(NC(=O)Oc2cccc(N3CCNCC3)c2)cc1
inhibition [1]: 27% | inhibition [2]: 66% | inhibition (CHO): 61% | inhibition [3]: 52% | inhibition [4]: 1% | inhibition [5]: -10% | inhibition [6]: 57% | inhibition [7]: -7% | inhibition (Rattus norvegicus [8]): 32% | inhibition [9]: -5% | inhibition [10]: 9% | inhibition (Rattus norvegicus [11]): -5% | inhibition [12]: 77% | inhibition [13]: 17% | inhibition [14]: 42% | inhibition [15]: 70% | inhibition [16]: 35% | inhibition [17]: 7% | inhibition (Rattus norvegicus [18]): 2% | inhibition [19]: -1% | inhibition [20]: 7% | inhibition [21]: -6% | inhibition [22]: 96% | inhibition [23]: -10% | inhibition [24]: 9% | inhibition [25]: 30% | inhibition [26]: 48% | inhibition [27]: 23% | inhibition [28]: 3% | inhibition [29]: 1% | inhibition [30]: 97% | inhibition [31]: 91% | inhibition [32]: 14% | inhibition [33]: 96% | inhibition [34]: -1% | inhibition (Rattus norvegicus [35]): 30% | inhibition [36]: 7%
